{"source": "patent US5130300A", "about": "“Method for enhancing growth of mammary parenchyma” (Monsanto Company, priority 1987, dated 1992)", "key": {"[1]": {"tested_on": "Quarter-Udders in Pregnant Beef Cows", "experiment": "Intramammary infusion of bIGF-I, quarter-udder weights and DNA (Examples 14-16)", "assay_type": "in vivo, cross-bred beef cows", "method": "(§1) 24 pregnant, non-lactating, cross-bred beef cows within their last 40-80 days of gestation were housed in a free-stall facility, fed a ration of alfalfa hay and pelleted concentrate, and administered 10 ml of an excipient (a sesame oil emulsion of the kind used in Examples 4-6) into each half-udder by intramammary infusion through the streak canal on days 1, 3, 5, 7 and 9 of this study. The infusion technique, random assignment of half-udders to treatment or control, and treatment vs. control comparisons were as in Examples 1-2. In the treatment infusions, the excipient contained bovine insulin-like growth factor-I (bIGF-I) prepared by expression in E. coli (Prla Strain 079) of recombinant DNA coding for bIGF-I fused to the \"lam\" B cell wall protein signal sequence, secretion into the E. coli periplasmic space, and recovery/purification by conventional techniques including gel filtration, cation exchange and reverse-phase HPLC. This bIGF-I had the same amino acid sequence and secondary structure as the AMgen human IGF-I used in Example 20. In standard L6 myoblast assays, its activity was essentially the same (90-123%) as that of the Example 20 hIGF-I. The amounts of bIGF-I in each infusion were: Group 1-2.5 micrograms: Group 2-25 micrograms; Group 3-250 micrograms. Animals were prepared and infused, and their quarter-udder weights and DNA were determined as in Example 3-6.\nWhen the procedures described for Groups 1-3 were repeated, results were essentially the same. Pooling results from the original study and its replication, it was determined that both treatment and control quarter-udders had grown as follows: […]"}, "L6 myoblast": {"tested_on": "L6 myoblast", "experiment": "Standard L6 myoblast assays", "assay_type": "cell-based", "method": "as §1"}, "[2]": {"settings": "Group 1: total of 12.5 micrograms bIGF-I"}, "[3]": {"settings": "Group 1: total of 12.5 micrograms bIGF-I, sesame oil emulsion"}, "[4]": {"settings": "Group 1: total of 12.5 micrograms bIGF-I, B = excipient only"}}, "data": [{"substance": "bIGF-I: bovine insulin-like growth factor-I prepared by expression in E. coli of recombinant DNA", "values": [{"measurement": "DNA, Avg % Increase/Animal", "setting": "[1]; [2]", "value": 12.5, "unit": "%"}, {"measurement": "Dry Fat-Free Weight, Avg % Increase/Animal", "setting": "[1]; [2]", "value": 16.0, "unit": "%"}, {"measurement": "Dry Weight, Avg % Increase/Animal", "setting": "[1]; [2]", "value": 8.8, "unit": "%"}, {"measurement": "Wet Weight, Avg % Increase/Animal", "setting": "[1]; [2]", "value": 11.0, "unit": "%"}, {"measurement": "DNA, Treatment Mean", "setting": "[1]; [3]", "value": 1307, "unit": "mg"}, {"measurement": "Dry Fat-Free Weight, Treatment Mean", "setting": "[1]; [3]", "value": 54.9, "unit": "g"}, {"measurement": "Dry Weight, Treatment Mean", "setting": "[1]; [3]", "value": 111.7, "unit": "g"}, {"measurement": "Wet Weight, Treatment Mean", "setting": "[1]; [3]", "value": 408.4, "unit": "g"}, {"measurement": "DNA, % Increase, (A-B)/B", "setting": "[1]; [4]", "value": 7.2, "unit": "%"}, {"measurement": "DNA, Mean Increase (A-B)", "setting": "[1]; [4]", "value": 88, "unit": "mg"}, {"measurement": "Dry Fat-Free Weight, % Increase, (A-B)/B", "setting": "[1]; [4]", "value": 14.2, "unit": "%"}, {"measurement": "Dry Fat-Free Weight, Mean Increase (A-B)", "setting": "[1]; [4]", "value": 6.9, "unit": "g"}, {"measurement": "Dry Weight, % Increase, (A-B)/B", "setting": "[1]; [4]", "value": 8.7, "unit": "%"}, {"measurement": "Dry Weight, Mean Increase (A-B)", "setting": "[1]; [4]", "value": 9.0, "unit": "g"}, {"measurement": "Wet Weight, % Increase, (A-B)/B", "setting": "[1]; [4]", "value": 10.7, "unit": "%"}, {"measurement": "Wet Weight, Mean Increase (A-B)", "setting": "[1]; [4]", "value": 39.4, "unit": "g"}, {"measurement": "Plasma levels of bIGF-I during the study", "setting": "[1]; intramammary infusion, pregnant beef cows", "value": "did not increase significantly"}, {"measurement": "Growth of quarter-udders combined, Medium vs. Low dose", "setting": "[1]; pooled original study and replication, 25 vs 2.5 micrograms bIGF-I per infusion, Combined", "value": "+25%"}, {"measurement": "Growth of control quarter-udders, Medium vs. Low dose", "setting": "[1]; pooled original study and replication, 25 vs 2.5 micrograms bIGF-I per infusion, Controls", "value": "+27%"}, {"measurement": "Growth of treatment quarter-udders, Medium vs. Low dose", "setting": "[1]; pooled original study and replication, 25 vs 2.5 micrograms bIGF-I per infusion, Treatment", "value": "+23.1%"}, {"measurement": "Growth of quarter-udders combined, High vs. Low dose", "setting": "[1]; pooled original study and replication, 250 vs 2.5 micrograms bIGF-I per infusion, Combined", "value": "+67%"}, {"measurement": "Growth of control quarter-udders, High vs. Low dose", "setting": "[1]; pooled original study and replication, 250 vs 2.5 micrograms bIGF-I per infusion, Controls", "value": "+71.3%"}, {"measurement": "Growth of treatment quarter-udders, High vs. Low dose", "setting": "[1]; pooled original study and replication, 250 vs 2.5 micrograms bIGF-I per infusion, Treatment", "value": "+62%"}, {"measurement": "Growth of quarter-udders combined, High vs. Medium dose", "setting": "[1]; pooled original study and replication, 250 vs 25 micrograms bIGF-I per infusion, Combined", "value": "+33%"}, {"measurement": "Growth of control quarter-udders, High vs. Medium dose", "setting": "[1]; pooled original study and replication, 250 vs 25 micrograms bIGF-I per infusion, Controls", "value": "+34.4%"}, {"measurement": "Growth of treatment quarter-udders, High vs. Medium dose", "setting": "[1]; pooled original study and replication, 250 vs 25 micrograms bIGF-I per infusion, Treatment", "value": "+31.5%"}, {"measurement": "Growth of the non-infused quarters", "setting": "[1]; two higher doses (Groups 2-3)", "value": "substantial growth"}, {"measurement": "Growth of treatment quarters vs. control quarters", "setting": "[1]; two higher doses (Groups 2-3: 25 and 250 micrograms per infusion)", "value": "did not produce consistently greater growth of treatment quarters vs. control quarters"}, {"measurement": "Activity relative to the Example 20 hIGF-I", "setting": "L6 myoblast", "value": "90-123%"}]}]}
